# According to patent US12643867B2, “Compositions and uses thereof” (University of Virginia Patent Foundation, priority 2017, dated 2026):
# Experiments:
# Type in all cases: binding
# BRAF = molecular target: T1, BRAF (Homo sapiens, UniProt P15056); experiment: ATP acyl phosphate chemical proteomics in lung cancer cell proteomes
# T1 construct: measure selectivity of compounds against native kinases detected in lung cancer proteomes; endogenous in cells; host or cells: A549 and H82 lung cancer cell proteomes
# T1 sequence (P15056 whole entry): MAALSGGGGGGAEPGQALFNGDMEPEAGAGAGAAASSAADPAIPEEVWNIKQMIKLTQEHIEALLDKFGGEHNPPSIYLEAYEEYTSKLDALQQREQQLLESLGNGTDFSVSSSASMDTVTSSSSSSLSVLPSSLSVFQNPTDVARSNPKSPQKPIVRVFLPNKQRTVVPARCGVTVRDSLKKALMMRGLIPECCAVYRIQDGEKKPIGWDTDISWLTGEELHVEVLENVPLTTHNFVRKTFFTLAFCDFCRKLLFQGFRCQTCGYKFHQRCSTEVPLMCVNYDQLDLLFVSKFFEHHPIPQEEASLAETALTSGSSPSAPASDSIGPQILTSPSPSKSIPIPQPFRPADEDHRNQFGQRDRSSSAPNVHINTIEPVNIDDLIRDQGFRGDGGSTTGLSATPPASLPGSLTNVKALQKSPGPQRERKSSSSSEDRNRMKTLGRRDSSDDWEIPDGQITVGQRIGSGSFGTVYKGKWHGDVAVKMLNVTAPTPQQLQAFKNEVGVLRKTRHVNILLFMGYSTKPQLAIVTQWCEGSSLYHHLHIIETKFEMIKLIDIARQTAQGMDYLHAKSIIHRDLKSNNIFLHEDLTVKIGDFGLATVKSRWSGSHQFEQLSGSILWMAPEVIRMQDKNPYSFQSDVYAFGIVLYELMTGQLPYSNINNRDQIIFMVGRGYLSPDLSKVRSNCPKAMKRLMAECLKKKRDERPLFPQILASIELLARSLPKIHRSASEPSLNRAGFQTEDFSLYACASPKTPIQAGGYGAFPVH
# Method: (§1) LC-MS analysis of SILAC samples using ATP acyl phosphates. Quantitative chemoproteomics was performed as previously described (Franks et al., 2017; McCloud et al., 2018).
# Computational Methods. Data for A549 and H82 cell lines were searched with IP2 and manually validated using the methods previously described (Franks et al., 2017). Data for Desthiobiotin-tagged ATP acyl-phosphate probes and ATP competitive peptides were compared and clustered. Ritanserin and ketanserin inhibition profiles were compared using SILAC ratios and normalized to DMSO.
# Based on previous chemical proteomics (Franks, 2017), it was hypothesized that ritanserin is functioning as a kinase inhibitor to mediate cytotoxicity in the lung cancer cell models. […] For these studies, NSCLC and SCLC cells were cultured in isotopically light and heavy amino acids to enable quantitative chemical proteomics (Chang. 2015) by stable isotope labeling with amino acids in cell culture (SILAC, FIG. 17A). […] After probe labeling, light and heavy proteomes were combined, digested with trypsin protease, and desthiobiotin-modified peptides enriched by avidin affinity chromatography and analyzed by LC-MS/MS to identify and quantify isotopically tagged active-site peptides from native kinases as previously described(Franks, 2017) (FIG. 17A).
# (§2) To further confirm that ritanserin is a CRAF inhibitor, a targeted parallel reaction monitoring method (PRM) was developed to evaluate compound activity against CRAF and other members of the RAF family (ARAF and BRAF). Targeted PRM was needed because of the low abundance of CRAF compared with ARAF and BRAF). […] Ritanserin activity was also measured against RAF kinases in A549 proteomes using the targeted LC-MS method. […] The data further support previous findings that this RAF member is enriched in SCLC cells (REF).
# ARAF = molecular target: T2, ARAF (Homo sapiens, UniProt P10398); experiment: ATP acyl phosphate chemical proteomics in lung cancer cell proteomes (targeted PRM); conditions: H82 proteomes
# T2 construct: measure selectivity of compounds against native kinases detected in lung cancer proteomes; endogenous in cells; host or cells: H82 (and A549) cell proteomes
# T2 sequence (P10398 whole entry): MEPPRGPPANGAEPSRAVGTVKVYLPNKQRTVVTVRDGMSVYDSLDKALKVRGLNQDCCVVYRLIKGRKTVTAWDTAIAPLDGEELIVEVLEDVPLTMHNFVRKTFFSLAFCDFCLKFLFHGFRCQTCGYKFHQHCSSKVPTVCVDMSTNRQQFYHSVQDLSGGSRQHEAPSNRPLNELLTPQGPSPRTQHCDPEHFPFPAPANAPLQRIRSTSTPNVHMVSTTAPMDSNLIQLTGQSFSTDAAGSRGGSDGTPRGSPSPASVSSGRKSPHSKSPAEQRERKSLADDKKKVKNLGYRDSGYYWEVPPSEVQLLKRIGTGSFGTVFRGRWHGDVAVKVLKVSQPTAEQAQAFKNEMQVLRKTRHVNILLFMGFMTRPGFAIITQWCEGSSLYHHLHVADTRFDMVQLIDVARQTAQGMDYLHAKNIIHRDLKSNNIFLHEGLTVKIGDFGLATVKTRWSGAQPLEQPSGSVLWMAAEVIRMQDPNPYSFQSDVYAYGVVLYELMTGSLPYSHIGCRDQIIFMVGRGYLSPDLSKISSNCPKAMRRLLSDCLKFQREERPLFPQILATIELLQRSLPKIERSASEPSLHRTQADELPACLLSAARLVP
# Method: as §1, §2
# [1] = molecular target: T3, hDGKa C1 domain cysteines (Homo sapiens, UniProt P23743); experiment: JWB003 labeling competition in vitro
# T3 construct: expressed in transfected cells; host or cells: HEK293T
# T3 sequence (P23743 whole entry, the tested form may be a part): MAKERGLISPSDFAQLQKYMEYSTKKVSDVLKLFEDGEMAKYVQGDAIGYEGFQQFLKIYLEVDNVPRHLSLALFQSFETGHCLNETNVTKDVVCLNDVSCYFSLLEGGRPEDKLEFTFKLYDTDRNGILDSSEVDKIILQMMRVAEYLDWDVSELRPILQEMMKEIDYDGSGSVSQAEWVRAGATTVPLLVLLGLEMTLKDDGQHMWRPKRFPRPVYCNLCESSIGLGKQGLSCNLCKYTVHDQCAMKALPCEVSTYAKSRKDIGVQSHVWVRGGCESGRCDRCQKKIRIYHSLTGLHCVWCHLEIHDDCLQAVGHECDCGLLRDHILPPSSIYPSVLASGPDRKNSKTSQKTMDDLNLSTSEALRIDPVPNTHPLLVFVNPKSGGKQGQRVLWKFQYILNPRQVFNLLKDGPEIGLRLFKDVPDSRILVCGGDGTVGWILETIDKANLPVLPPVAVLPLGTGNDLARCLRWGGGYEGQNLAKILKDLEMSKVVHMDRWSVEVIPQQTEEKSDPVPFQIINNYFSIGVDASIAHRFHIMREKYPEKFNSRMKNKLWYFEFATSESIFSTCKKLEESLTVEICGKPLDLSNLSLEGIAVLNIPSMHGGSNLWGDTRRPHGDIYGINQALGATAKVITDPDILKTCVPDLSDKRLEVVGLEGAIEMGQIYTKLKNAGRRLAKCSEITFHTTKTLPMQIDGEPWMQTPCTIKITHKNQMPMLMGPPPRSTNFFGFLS
# Method: • 1. HEK293T cells were harvested in cold PBS. • a. Cells were transferred to Eppendorf tube. • 2. Cells were lysed via tip sonicator. • 3. Cells were fractionated into membrane and soluble fraction. • a. 100,000×G for 45 minutes at 4 degree. • b. Supernatant was separated from cell pellet. • 4. Dilute proteomes to 1 mg/mL in PBS and aliquot appropriate reaction volume (49 μL for probe only; 48 μL for competition+probe) • 5. Cells were treated with 50× inhibitor. • a. Incubated for 1Hr at 37 degree. • 6. Cells were treated with 50× Probe (JWB003). • a. Incubated for 1Hr at 37 degree. • 7. Add 6 μL of master mix to each alkyne probe-labeled sample. • a. 1 μL of 1.25 mM Rh-N3 • b. 1 μL of fresh 50 mM TCEP • c. 3 μL of 1.7 mM TBTA stock • d. 1 μL of 50 mM CuSO4 • 8. Vortex samples. • 9. Incubate at room temperature for 1 hr • 10. Quench with 17 μL of 4×SDS-PAGE loading buffer+βME and vortex tubes. • 11. Analyze 30 μL samples by SDS-PAGE immediately. [B] Labeling HEK293T Cells to Determine Target Proteins of JWB003 in Live Cells (In Situ) • 1. Complete media was removed from HEK293T cells and replaced with serum free media containing JWB003 at the appropriate final concentration • a. Cells were placed in incubator for appropriate time at 37 degree 5% CO2 • 2. Cells were washed • a. 2× warm PBS • b. 2× cold PBS • c. Harvest cells in cold PBS • 3. Cells were transferred to Eppendorf tube • 4. Cells were lysed via tip sonicator • 5. Cells were fractionated into membrane and soluble fraction • a. 100,000×G for 45 minutes at 4 degrees • b. Supernatant was separated from cell pellet. • 6. Dilute proteomes to 1 mg/mL and aliquot appropriate reaction volume (50 μL) • 7. Add 6 μL of master mix to each alkyne probe-labeled sample. • a. 1 μL of 1.25 mM Rh-N3 • b. 1 μL of fresh 50 mM TCEP • c. 3 μL of 1.7 mM TBTA stock • d. 1 μL of 50 mM CuSO4 • 8. Vortex samples. • 9. Incubate at room temperature for 1 hr. • 10. Quench with 17 μL of 4×SDS-PAGE loading buffer+βME and vortex tubes. • 11. Analyze 30 μL samples by SDS-PAGE immediately. [C] […]
structure (smiles),measurement,setting,value
Cc1nc2sccn2c(=O)c1CCN1CCC(=C(c2ccc(F)cc2)c2ccc(F)cc2)CC1 [Ritanserin],inhibition by three-fold change cutoff,"BRAF; 100 μM, A549 and H82 proteomes",BRAF inhibition
same,activity by targeted PRM,BRAF; H82 proteomes,negligible activity
same,activity by targeted PRM,ARAF,negligible activity
same,inhibition of JWB003 probe labeling of hDGKa,[1],Probe labeling is inhibited
